Experimental data: US6906007B2, “Phenyl-substituted 5,6-dihydropyrone derivatives for use as pesticides and herbicides” (Bayer CropScience AG, priority 2000, dated 2005)

Tests used:
Format in all cases: in vivo
[1] = tested on: Meloidogyne incognita; assay: Meloidogyne test (Example A); settings: 20 ppm active compound, gall formation on lettuce roots
Protocol: (§1) Meloidogyne Test Solvent: 30 parts by weight of dimethylformamide Emulsifier: 1 part by weight of alkylaryl polyglycol ether To produce a suitable preparation of active compound, 1 part by weight of active compound is mixed with the stated amounts of solvent and emulsifier, and the concentrate is diluted with water to the desired concentration. Containers are filled with sand, solution of active compound, Meloidogyne incognita egg/larvae suspension and lettuce seeds. The lettuce seeds germinate and the plants develop. On the roots, galls are formed. After the desired period of time, the nematicidal action in % is determined using the formation of galls as a measure. 100% means that no galls have been found; 0% means that the number of galls on the treated plants corresponds to that on the untreated control.

[2] = tested on: greenhouse red spider mite (Tetranychus urticae); assay: Tetranychus test (OP-resistant/dip treatment); settings: bean plants dipped
Protocol: Tetranychus Test (OP-Resistant/Dip Treatment)
Solvent: 30 parts by weight of dimethylformamide
Emulsifier: 1 part by weight of alkylaryl polyglycol ether
(§2) To produce a suitable preparation of active compound, 1 part by weight of active compound is mixed with the stated amounts of solvent and emulsifier, and the concentrate is diluted with water to the desired concentration.
Bean plants (Phaseolus vulgaris) which are heavily infested by all stages of the greenhouse red spider mite (Tetranychus urticae) are dipped into a preparation of active compound of the desired concentration.
After the desired period of time, the effect in % is determined. 100% means that all of the spider mites have been killed, 0% means that none of the spider mites has been killed.
In this test, for example, the following compounds of the Preparation Examples show good activity.

[3] = tested on: larvae of the mustard beetle (Phaedon cochleariae); assay: Phaedon larvae test; settings: 1000 ppm, cabbage leaves dipped
Protocol: (§3) Phaedon larvae Test Solvent: 30 parts by weight of dimethylformamide Emulsifier: 1 part by weight of alkylaryl polyglycol ether To produce a suitable preparation of active compound, 1 part by weight of active compound is mixed with the stated amounts of solvent and emulsifier, and the concentrate is diluted with water to the desired concentration. Cabbage leaves (Brassica oleracea) are treated by being dipped into the preparation of active compound of the desired concentration and are populated with larvae of the mustard beetle (Phaedon cochleariae) while the leaves are still moist. After the desired period of time, the kill in % is determined. 100% means that all of the beetle larvae have been killed. 0% means that none of the beetle larvae has been killed. In this test, for example, the following compounds of the Preparation Examples show good activity.

[4] = tested on: caterpillars of the army worm (Spodoptera frugiperda); assay: Spodoptera frugiperda test; settings: 1000 ppm, cabbage leaves dipped
Protocol: as §3, with “Spodoptera frugiperda” for “Phaedon larvae”, “caterpillars” for “larvae”, “army worm (Spodoptera frugiperda)” for “mustard beetle (Phaedon cochleariae)”, “caterpillars” for “beetle larvae”, “killed; 0%.” for “killed. 0%”

[5] = tested on: Sphaerotheca fuliginea; assay: Sphaerotheca test (cucumber)/protective; settings: 750 g/ha, protective, evaluation 7 days after inoculation
Protocol: Sphaerotheca Test (Cucumber)/Protective
Solvent: 48.8 parts by weight of N,N-dimethylformamide
Emulsifier: 1.2 parts by weight of alkylaryl polyglycol ether
as §2
To test for protective activity, young cucumber plants are sprayed with the preparation of active compound at the stated application rate. 1 day after the treatment, the plants are inoculated with a spore suspension of Sphaerotheca fuliginea. The plants are then placed in a greenhouse at 70% relative atmospheric humidity and a temperature of 23° C.
Evaluation is carried out 7 days after the inoculation. 0% means an efficacy which corresponds to that of the control, whereas an efficacy of 100% meais that no infection is observed.

[6] = tested on: peach aphid (Myzus persicae); assay: Myzus test; settings: 1000 ppm, cabbage leaves dipped
Protocol: Myzus Test Solvent: 30 parts by weight of dimethylformamide Emulsifier: 1 part by weight of alkylaryl polyglycol ether To produce a suitable preparation of active compound, 1 part by weight of active compound is mixed with the stated amounts of solvent and emulsifier, and the concentrate is diluted with water to the desired concentration. Cabbage leaves (Brassica oleracea) which are heavily infested by the peach aphid (Myzus persicae) are treated by being dipped into a preparation of active compound of the desired concentration. After the desired period of time, the kill in % is determined. 100% means that all of the aphids have been killed: 0% means that none of the aphids has been killed. In this test, for example, the following compounds of the Preparation Examples show good activity.

[7] = tested on: Meloidogyne incognita; assay: Meloidogyne test (Example G); settings: 20 ppm; gall formation on lettuce roots
Protocol: as §1, with “Test Solvent: 8 parts by” for “Test Solvent: 30 parts by”, “of active compound. Meloidogyne incognita” for “of active compound, Meloidogyne incognita”

[8] = tested on: fruit tree red spider mite (Panonychus ulmi); assay: Panonychus test; settings: 200 ppm, plum trees sprayed
Protocol: Panonychus Test Solvent: 3 parts by weight of dimethylformamide Emulsifier: 1 part by weight of alkylaryl polyglycol ether To produce a suitable preparation of active compound, 1 part by weight of active compound is mixed with the stated amounts of solvent and emulsifier, and the concentrate is diluted with water to the desired concentration. Plum trees (Prunus domestica), of a height of approximately 30 cm, which are heavily infested by all stages of the fruit tree red spider mite (Panonychus ulmi) are sprayed with a preparation of active compound of the desired concentration. After the desired period of time, the effect in % is determined. 100% means that all of the spider mites have been killed: 0% means that none of the spider mites has been killed.

Cc1cc(C)c(C2=C(OC(=O)C(C)C)OCC(C)(C)C2=O)c(C)c1 [Ex. I-B-b-17]
Kill rate in % after 14d [1]: 90% | Kill rate in % after 7d ([2]; 100 ppm): 100%

Cc1ccc(-c2ccc(Cl)cc2)cc1C1=C(OC(=O)C(C)C)C(C)(C)C(C)(C)OC1=O [Ex. I-A-b-10]
Kill rate in % after 14d [1]: 100% | Kill rate in % after 7d [3]: 100% | Kill rate in % after 7d [4]: 100%

COC1OC(OC(C)=O)=C(c2ccc(Cl)cc2C)C(=O)C1(C)C (centres unmarked) [Ex. I-B-b-13]
Efficacy in % [5]: 70%

Cc1cc(C)c(C2=C(O)C(C)(C)C(C)(C)OC2=O)c(C)c1 [Ex. I-a-7]
Kill rate in % after 6d [6]: 90% | Kill rate in % at active compound concentration in ppm [7]: 20 ppm = 100%

Cc1cc(-c2ccc(Cl)cc2)cc(C)c1C1=C(O)C(C)(C)COC1=O [Ex. I-a-13]
Kill rate in % after 7d [3]: 100%

Cc1cc(C)c(C2=C(OC(=O)OC(C)C)OCC(C)(C)C2=O)c(C)c1 [Ex. I-B-c-1]
Kill rate in % after 14d [1]: 90% | Kill rate in % after 7d ([2]; 100 ppm): 100%

Cc1ccc(-c2ccc(Cl)cc2)cc1C1=C(OC(=O)OC(C)C)C(C)(C)C(C)(C)OC1=O [Ex. I-A-c-3]
Kill rate in % after 7d [3]: 90% | Kill rate in % after 7d ([2]; 0.01 ppm): 100%

Cc1ccc(-c2ccc(Cl)cc2)cc1C1=C(O)C(C)(C)COC1=O [Ex. I-a-5]
Kill rate in % after 14d [1]: 100% | Kill rate in % after 6d [6]: 95% | Kill rate in % after 7d [3]: 100%

Cc1cc(-c2ccc(Cl)cc2)cc(C)c1C1=C(OC(=O)C(C)C)C(C)(C)C(C)(C)OC1=O [Ex. I-A-b-1]
Kill rate in % after 14d [1]: 100%

Cc1cc(-c2ccc(Cl)cc2)cc(C)c1C1=C(OC(=O)C(C)C)C(C)(C)COC1=O [Ex. I-A-b-11]
Kill rate in % after 7d [3]: 100%

COC1OC(=O)C(c2ccc(Cl)cc2C)=C(OC(C)=O)C1(C)C (centres unmarked) [Ex. I-A-b-3]
Efficacy in % [5]: 80%

Cc1cc(-c2ccc(Cl)cc2)cc(C)c1C1=C(O)C(C)(C)C(C)(C)OC1=O [Ex. I-a-1]
Kill rate in % after 7d [3]: 100%

Cc1ccc(-c2ccc(Cl)cc2)cc1C1=C(O)C(C)(C)C(C)(C)OC1=O [Ex. I-a-6]
Kill rate in % after 6d [6]: 95% | Kill rate in % after 14d [8]: 100% | Kill rate in % after 7d [3]: 100% | Kill rate in % after 7d [4]: 100% | Kill rate in % after 7d ([2]; 100 ppm): 100%

Cc1cc(C)c(C2=C(OC(=O)C(C)C)OC(C)(C)C(C)(C)C2=O)c(C)c1 [Ex. I-B-b-16]
Kill rate in % after 7d ([2]; 100 ppm): 100%
